US20110166149A1, “PTERIDINE DERIVATIVES FOR TREATING RESPIRATORY DISEASE” (TARGEGEN INC., priority 2008, published 2011)
Read-outs that look alike come from different tables or passages of the source. Marks after values point to notes of the source that are not given here.

Assay: Inhalation exposure: Compound A concentration in lung, plasma and BALF (Example 2)
Format: in vivo, BALB/c mice
Details: for concentration at 2 h / concentration at 4 h / concentration at 8 h / concentration at 12 h / concentration at 24 h / concentration at 0.083 h / concentration at 0.25 h / concentration at 0.5 h / concentration at 1 h: male, BALB/c, mouse, lung, inhaled, read-out: Compound A concentration Lung; for concentration at 2 h / concentration at 4 h / concentration at 8 h / concentration at 12 h / concentration at 24 h / concentration at 0.083 h / concentration at 0.25 h / concentration at 0.5 h / concentration at 1 h / Compound A concentration Plasma: mice, 30 min inhalation
Protocol: A series of compositions for pulmonary delivery were prepared by making a 20% suspension of compound A in a 5% tyloxapol solution in water. Particle size reduction was achieved using a colloid mill (magicLAB®, MK module, for 6 hours @ 12,000 rpm, while maintaining a temperature below 50° C.). Samples at 4% w/v compound A were prepared by dilution with DI water.
Low (0.02 mg/L), mid (0.07 mg/L), and high (0.20 mg/L) target aerosol concentrations 0.3% Compound A/0.075% tyloxapol, 0.6% Compound A/0.15% tyloxapol, and 1.5% Compound A/0.375% tyloxapol suspensions were used. These low, mid, and high target formulations were prepared as follows: […]
4% compound A and 1% tyloxapol were removed from refrigeration and approximately 2.25, 4.5, and 12 mL were transferred into clean 50 mL graduated plastic tubes, labeled 0.3% A/0.075% tyloxapol, 0.6% A/0.15% tyloxapol, and 1.5% A/0.375% tyloxapol suspensions and allowed to warm to room temperature. Each was diluted to 20 mL with ultra pure water and vortexed until completely mixed. Each formulation was made the morning of exposure to alleviate any storing/stability issues.
Eighty-seven (87) male BALB/c mice (8 weeks of age on arrival and 18.6-24.6 g on exposure day) were purchased from Charles River Laboratories (Raleigh, N.C.). The three animals with the lowest body weights and the three with the highest body weights were excluded from the study on the day of randomization. The remaining eighty-one (81) animals were assigned to the study. Temperatures and relative humidity (RH) in animal housing areas were within the target range specified in the protocol.
Animals were exposed to one of three concentrations of Compound A aerosols for a target of 30 min.
The actual concentrations of test article in the exposure atmospheres were determined by chemical analysis of timed filter samples collected directly from a nose-only exposure port during exposure. In addition, one impactor sample was obtained to verify particle size distribution (PSD), which is characterized by mass median aerodynamic diameter (MMAD) and geometric standard deviation (GSD). The filters and impactor stages were analyzed chemically by LRRI and are described below.

[1] = nominal aerosol 0.02 mg/L, 12 h
[2] = nominal aerosol 0.02 mg/L, 24 h
[3] = nominal aerosol 0.07 mg/L, 0.083 h
[4] = nominal aerosol 0.07 mg/L, 0.25 h
[5] = nominal aerosol 0.07 mg/L, 0.5 h
[6] = nominal aerosol 0.07 mg/L, 12 h
[7] = nominal aerosol 0.07 mg/L, 24 h
[8] = nominal aerosol 0.2 mg/L, 0.083 h
[9] = nominal aerosol 0.2 mg/L, 0.25 h
[10] = nominal aerosol 0.2 mg/L, 0.5 h
[11] = mouse lung, aerosol conc. 0.02 mg/L
[12] = mouse lung, aerosol conc. 0.07 mg/L
[13] = mouse lung, aerosol conc. 0.2 mg/L

With `Nc1nc(N)c2nc(-c3cccc(O)c3)c(-c3cccc(O)c3)nc2n1` [Compound A, 6,7-bis(3-hydroxyphenyl)-pteridine-2,4-diamine] the concentration at 2 h (nominal aerosol 0.02 mg/L, 2 h) was 9550 ± 840 ng/g, the concentration at 4 h (nominal aerosol 0.02 mg/L, 4 h) was 10500 ± 3250 ng/g and the concentration at 8 h (nominal aerosol 0.02 mg/L, 8 h) was 5660 ± 3390 ng/g. It also gave a concentration at 12 h [1] of 8670 ± 2310 ng/g, a concentration at 24 h [2] of 3390 ± 2540 ng/g and a concentration at 0.083 h [3] of 20600 ± 10100 ng/g. For the same molecule, the concentration at 0.25 h [4] was 16500 ± 2250 ng/g, the concentration at 0.5 h [5] was 16600 ± 600 ng/g and the concentration at 1 h (nominal aerosol 0.07 mg/L, 1 h) was 17200 ± 2430 ng/g. The concentration at 2 h (nominal aerosol 0.07 mg/L, 2 h) was 22700 ± 5090 ng/g, the concentration at 4 h (nominal aerosol 0.07 mg/L, 4 h) was 17000 ± 1620 ng/g and the concentration at 8 h (nominal aerosol 0.07 mg/L, 8 h) was 15900 ± 3310 ng/g. For the same molecule, the concentration at 12 h [6] was 16800 ± 12500 ng/g, the concentration at 24 h [7] was 10800 ± 660 ng/g and the concentration at 0.083 h [8] was 41000 ± 10300 ng/g. The concentration at 0.25 h [9] was 39200 ± 12300 ng/g, the concentration at 0.5 h [10] was 67200 ± 39100 ng/g and the concentration at 1 h (nominal aerosol 0.2 mg/L, 1 h) was 37700 ± 8070 ng/g. The concentration at 2 h (nominal aerosol 0.2 mg/L, 2 h) was 49300 ± 15400 ng/g, the concentration at 4 h (nominal aerosol 0.2 mg/L, 4 h) was 44600 ± 2400 ng/g and the concentration at 8 h (nominal aerosol 0.2 mg/L, 8 h) was 44000 ± 12000 ng/g. The concentration at 12 h (nominal aerosol 0.2 mg/L, 12 h) was 40800 ± 6290 ng/g, the concentration at 24 h (nominal aerosol 0.2 mg/L, 24 h) was 26800 ± 2630 ng/g and the “Compound A concentration Plasma” value (nominal aerosol 0.02 mg/L, 0.083 h) was 2.16 (⅔) ng/mL. The “Compound A concentration Plasma” value (nominal aerosol 0.02 mg/L, 0.25 h) was “<LLOQ”, the “Compound A concentration Plasma” value (nominal aerosol 0.02 mg/L, 0.5 h) was 1.98 (⅔) ng/mL and the “Compound A concentration Plasma” value (nominal aerosol 0.02 mg/L, 1 h) was 1.19 (⅓) ng/mL. The “Compound A concentration Plasma” value (nominal aerosol 0.02 mg/L, 2 h) was “<LLOQ”, the “Compound A concentration Plasma” value (nominal aerosol 0.02 mg/L, 4 h) was “<LLOQ” and the “Compound A concentration Plasma” value (nominal aerosol 0.02 mg/L, 8 h) was “<LLOQ”. The “Compound A concentration Plasma” value [1] was “<LLOQ”, the “Compound A concentration Plasma” value [2] was “<LLOQ” and the “Compound A concentration Plasma” value [3] was 5.43 (⅓) ng/mL. For the same molecule, the “Compound A concentration Plasma” value [4] was 1.03 (⅓) ng/mL, the “Compound A concentration Plasma” value [5] was 2.45 (⅓) ng/mL and the “Compound A concentration Plasma” value (nominal aerosol 0.07 mg/L, 1 h) was “<LLOQ”. For the same molecule, the “Compound A concentration Plasma” value (nominal aerosol 0.07 mg/L, 2 h) was “<LLOQ”, the “Compound A concentration Plasma” value (nominal aerosol 0.07 mg/L, 4 h) was “<LLOQ” and the “Compound A concentration Plasma” value (nominal aerosol 0.07 mg/L, 8 h) was “<LLOQ”. For the same molecule, the “Compound A concentration Plasma” value [6] was 2.05 (⅓) ng/mL, the “Compound A concentration Plasma” value [7] was “<LLOQ” and the “Compound A concentration Plasma” value [8] was 1.34 (⅔) ng/mL. For the same molecule, the “Compound A concentration Plasma” value [9] was 1.43 (⅓) ng/mL, the “Compound A concentration Plasma” value [10] was 1.15 (⅓) ng/mL and the “Compound A concentration Plasma” value (nominal aerosol 0.2 mg/L, 1 h) was 1.62 (⅔) ng/mL. The “Compound A concentration Plasma” value (nominal aerosol 0.2 mg/L, 2 h) was 1.21 (⅓) ng/mL, the “Compound A concentration Plasma” value (nominal aerosol 0.2 mg/L, 4 h) was 1.21 (⅔) ng/mL and the “Compound A concentration Plasma” value (nominal aerosol 0.2 mg/L, 8 h) was 2.19 (⅓) ng/mL. The “Compound A concentration Plasma” value (nominal aerosol 0.2 mg/L, 12 h) was 2.08 (⅔) ng/mL, the “Compound A concentration Plasma” value (nominal aerosol 0.2 mg/L, 24 h) was “<LLOQ” and the Thalf (mouse BALF, aerosol conc. 0.02 mg/L) was 39.8 h. The Thalf (mouse BALF, aerosol conc. 0.07 mg/L) was 16.7 h, the Thalf (mouse BALF, aerosol conc. 0.2 mg/L) was 17.0 h and the “AUC(0-24)” value [11] was 176 µg·h/g. The AUCinf [11] was 247 µg·h/g, the Thalf (mouse lung, aerosol conc. 0.02 mg/L, Regression Coefficient is less than 0.9) was 14.5^# hrs and the “AUC(0-24)” value [12] was 373 µg·h/g. The AUCinf [12] was 757 µg·h/g, the Thalf (mouse lung, aerosol conc. 0.07 mg/L, Regression Coefficient is less than 0.9) was 24.6^# hrs and the “AUC(0-24)” value [13] was 938 µg·h/g. It also gave an AUCinf [13] of 1777 µg·h/g and a Thalf [13] of 21.7 h.
